Like-named read-outs stand apart in the source and are kept apart here.
Assays:
[1] = humans, cited from earlier work
[2] = system: LNCAP (human prostate carcinoma); experiment: Cell proliferation response to insulin and IGF-1: LNCAP; format: cell-based; conditions: minimal medium, 1 ug/ml insulin or 100 ng/ml IGF-1, 1, 2 and 4 days, data not shown
Protocol: (§1) The cell lines LNCAP, MCF-7, MDA-231, SCK, and HOP-92 were also tested to determine whether the cells increased their proliferation in the presence of insulin or IGF-1. Cells were plated in minimal medium with no addition (negative control), 1 ug/ml insulin, 100 ng/ml IGF-1, or 10% fetal calf serum (positive control), and cell density was monitored at 1, 2, and 4 days after plating. […] (Data not shown).

[3] = system: SCK (mouse mammary carcinoma); experiment: Cell proliferation response to insulin and IGF-1: SCK; format: cell-based; conditions: minimal medium, 1 ug/ml insulin or 100 ng/ml IGF-1, 1, 2 and 4 days, data not shown
Protocol: as §1

[4] = system: MDA-231 (human breast carcinoma); experiment: Cell proliferation response to insulin and IGF-1: MDA-231; format: cell-based; conditions: MDA-231, minimal medium, 1 ug/ml insulin or 100 ng/ml IGF-1, 1, 2 and 4 days; data not shown
Protocol: as §1

[5] = system: MCF-7 (human breast carcinoma); experiment: Cell proliferation response to insulin and IGF-1: MCF-7; format: cell-based; conditions: MCF-7, minimal medium, 1 ug/ml insulin or 100 ng/ml IGF-1, 1, 2 and 4 days; data not shown
Protocol: as §1

[6] = target: T1, IGF-1R (Homo sapiens, UniProt P08069); experiment: Competitive binding assay to IGF-1R on MCF7 cell monolayers; conditions: competition against radiolabelled wild-type IGF-1, MCF7 cells
T1 construct: endogenous in cells; host or cells: MCF7 (human breast cancer cell line), near-confluent monolayers
T1 sequence (P08069 31-736 limits assumed): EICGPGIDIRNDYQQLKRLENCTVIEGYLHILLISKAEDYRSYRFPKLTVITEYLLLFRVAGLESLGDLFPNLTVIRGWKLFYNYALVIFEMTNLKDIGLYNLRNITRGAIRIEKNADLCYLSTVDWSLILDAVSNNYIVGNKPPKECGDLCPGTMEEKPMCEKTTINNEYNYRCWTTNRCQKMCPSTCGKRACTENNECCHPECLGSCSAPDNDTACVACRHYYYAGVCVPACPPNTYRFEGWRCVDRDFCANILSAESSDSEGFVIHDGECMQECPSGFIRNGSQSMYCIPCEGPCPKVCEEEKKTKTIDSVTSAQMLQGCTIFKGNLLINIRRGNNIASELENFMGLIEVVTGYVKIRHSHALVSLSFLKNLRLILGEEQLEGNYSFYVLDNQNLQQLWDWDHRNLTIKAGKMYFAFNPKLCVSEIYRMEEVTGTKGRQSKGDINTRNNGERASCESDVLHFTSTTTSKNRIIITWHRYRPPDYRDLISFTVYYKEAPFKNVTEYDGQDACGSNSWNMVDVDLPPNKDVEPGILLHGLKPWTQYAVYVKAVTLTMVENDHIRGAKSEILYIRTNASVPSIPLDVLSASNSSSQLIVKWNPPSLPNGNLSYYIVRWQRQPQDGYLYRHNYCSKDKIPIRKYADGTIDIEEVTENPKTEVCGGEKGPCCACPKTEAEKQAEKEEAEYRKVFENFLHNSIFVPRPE
T1 sequence (P08069 741-1367 limits assumed): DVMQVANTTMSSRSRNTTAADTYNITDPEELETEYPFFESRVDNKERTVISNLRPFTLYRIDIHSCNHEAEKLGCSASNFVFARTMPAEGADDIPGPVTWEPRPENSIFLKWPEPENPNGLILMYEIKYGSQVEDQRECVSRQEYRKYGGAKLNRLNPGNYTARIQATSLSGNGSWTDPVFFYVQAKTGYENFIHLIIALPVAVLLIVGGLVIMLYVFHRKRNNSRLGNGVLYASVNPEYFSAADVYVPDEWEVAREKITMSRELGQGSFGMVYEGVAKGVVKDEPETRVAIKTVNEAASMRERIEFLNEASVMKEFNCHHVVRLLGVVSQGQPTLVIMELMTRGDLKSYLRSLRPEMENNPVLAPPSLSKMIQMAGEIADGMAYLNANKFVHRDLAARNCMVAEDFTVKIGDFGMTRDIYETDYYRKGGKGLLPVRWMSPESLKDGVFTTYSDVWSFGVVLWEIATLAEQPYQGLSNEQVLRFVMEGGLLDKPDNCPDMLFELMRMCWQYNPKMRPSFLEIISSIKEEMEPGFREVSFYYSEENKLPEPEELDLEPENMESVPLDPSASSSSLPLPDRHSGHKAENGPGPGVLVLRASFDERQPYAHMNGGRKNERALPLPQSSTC
Protocol: MCF7 cells were plated in a 24-well plate and incubated overnight at 37° C. in a 6.5% CO2 humidified atmosphere in DMEM+glutamine with 10% fetal calf serum (FCS) at a cell number to generate close to confluent monolayers. Cells were washed twice and placed in 0.1 M HEPES-NaOH, pH 7.5, 120 mM NaCl, 5 mM KCl, 1.2 mM MgSO4, 0.1% bovine serum albumin (binding buffer). The plate was preincubated at 4° C. for 1 hour. For the assay wells, long-R3-IGF-1 or IGF-MTX conjugate was added at the indicated concentration in binding buffer (positive controls had no addition). I^125-labeled IGF-1 was then added in the amount of 0.03 μCi per well. Plates were incubated at 4° C. overnight, and then washed twice in binding buffer. Cells were lysed with 300 mM NaOH, 1% SDS. The lysate of each well was counted by scintillation counting. Each condition was assayed in duplicate.
A competition binding assay between the IGF-MTX conjugate and radiolabelled IGF-1 was performed as described in the Materials and Methods. MCF7 cells were grown to near confluence, and incubated with unconjugated long-R3-IGF-1 or conjugated IGF-MTX in competition with radiolabelled wild-type IGF-1 (FIG. 9).

[7] = system: LNCAP tumors; experiment: LNCaP xenograft tumor growth in nu/nu mice; format: in vivo, mouse; conditions: for fold lower dose at which it is or appears more effective than free MTX: LNCaP xenografts (prostate cancer model in mice)
Protocol: (§2) MCF7 cells (human breast adenocarcinoma cell line) were grown in Eagle's minimal essential medium supplemented with 0.1 mg/ml insulin and 10% FCS. The estrogen-dependent MCF7-L cell line was a gift from Deepali Sachdev of the University of Minnesota. MCF7-L cells were grown in modified IMEM medium (Invitrogen, Carlsbad, Calif., USA) supplemented with 0.1 mg/ml insulin. LNCaP cells (metastatic human prostatic adenocarcinoma) were grown in RPMI supplemented with glutamine and 10% FCS (Invitrogen, Carlsbad, Calif., USA). Cells were grown at 37° C. in a 5% CO2 humidified atmosphere. In each case, cells were grown to approximately two-thirds confluence, harvested by trypsinization, washed with rich medium and then washed twice with PBS and resuspended in phosphate buffered saline in BD matrigel matrix (Becton Dickinson, Franklin Lakes, N.J., USA). Cells were injected intradermally in mice on the back. An estrogen pellet (0.5 mg estradiol, 60-day release, Innovative Research of America, Sarasota, Fla., USA) was implanted subcutaneously between the shoulder blades two days before implanting MCF7 and MCF7-L cells. MCF7 and MCF7-L cells were implanted in 8-week-old female nu/nu mice. LNCaP cells were implanted in 8-week-old male nu/nu mice. […] MTX was dissolved in PBS. Untreated vehicle controls received 2 mM HCl, 1% glycerol. Drug was administered intravenously by tail-vein injection in a volume of 12.5 μl per gram mouse weight. All studies were approved by the University of Minnesota Animal Care and Use Committee and conformed to relevant ethical guidelines.
In a final in vivo study, prostate cancer LNCaP cells were implanted intradermally on day 0 in mice, which were then randomized to different treatment groups.

[8] = system: LNCAP cells; experiment: LNCAP proliferation in vitro (Example 5, cell counting kit-8)
Protocol: LNCAP cells were plated in a 96-well plate at 3,000 cells per well in RPMI medium supplemented with 10% fetal bovine serum (FBS). After incubation overnight, the medium in the wells was replaced with 100 μl per well of RPMI supplemented with 0.1% FBS. […] After incubation for 4 days, cell proliferation was assayed with the cell counting kit-8 (Dojindo Molecular Technologies, Gaithersburg, Md.).

[9] = system: MCF7 tumors; experiment: MCF7 xenograft tumor growth in nu/nu mice; format: in vivo, mouse
Protocol: as §2
Three in vivo studies were performed to assess the targeting of MTX with long-R3-IGF-1. In the initial preliminary study, breast cancer MCF7 cells were implanted intradermally in the backs of nude mice.

[10] = system: MCF7-L tumors; experiment: MCF7-L xenograft tumor growth in nu/nu mice; format: in vivo, mouse; conditions: day 22; IGF-MTX 10 nmol of MTX/g or free MTX 40 nmol/g, tail vein, days 0 and 5
Protocol: as §2, with “Drug was administered intravenously by tail-vein injection in a volume of 12.5 μl per gram mouse weight. All studies were approved by the University of Minnesota Animal Care and Use Committee and conformed to relevant ethical guidelines.” left out

[11] = system: LNCAP cells; experiment: In vitro proliferation assay, LNCaP (Example 8); format: cell-based, human
Protocol: LNCaP, MCF7 and MCF7-L cell lines were plated, respectively, in a 96-well plate at 5,000 cells per well in RPMI+glutamine+10% FCS medium in 100 μl. After 24 hours, 100 μl fresh medium was added containing no drug (control), IGF-MTX or MTX at the indicated concentration.

[12] = IGF-MTX- and MTX-related toxicity in mice (ill effects, body weight); conditions: mouse, in vivo
Protocol: as §2

[13] = system: LNCAP tumors; format: in vivo, mouse
Protocol: LNCAP testing. Eight-week old athymic male mice (nu/nu) were injected subcutaneously in the thigh with 1 million LNCAP cells in serum-free medium. Tumors were allowed to grow until they reached an average size of 100 mm^3. […] A fifth group of mice was untreated controls.

[14] = system: FSAII tumors; experiment: FSAII tumor growth in vivo in mice; parameters: species or system mouse
Protocol: FSAII testing. Six-week old female mice were injected subcutaneously in the thigh with 200,000 FSAII cells each in serum-free medium. Tumors were allowed to grow until they reached an average volume of 100 mm^3 (calculated as length×breadth^2). At that time, treatment was initiated. […] A fifth group of mice was untreated controls. Each group contained five mice. Mice were treated on days 0, 2, and 5. Tumor growth was measured every second day.

[15] = system: type 1 IGF receptor; conditions: cited from earlier work
[16] = low dose conjugate vs high dose methotrexate
[17] = high dose 60 μmoles/kg methotrexate, intraperitoneally, days 0, 2 and 5

O=P1(N(CCCl)CCCl)NCCCO1 (centres unmarked) [cyclophosphamide]
maximum safe dosage [1]: approximately 5 millimoles per meter squared per 3 weeks | minimum effective dosage [1]: approximately 3 millimoles per meter squared per 3 weeks

CC(=O)O[C@@]12CO[C@@H]1C[C@H](O)[C@@]1(C)C(=O)[C@H](O)C3=C(C)[C@@H](OC(=O)[C@H](O)[C@@H](NC(=O)OC(C)(C)C)c4ccccc4)C[C@@](O)([C@@H](OC(=O)c4ccccc4)[C@H]21)C3(C)C [docetaxel]
maximum safe dosage ([1]; cumulative per 3 weeks): about 120 micromoles per meter squared per 3 weeks | minimum effective dosage ([1]; lowest dosage usually used): about 70 micromoles per meter squared per 3 weeks

COc1cccc2c1C(=O)c1c(O)c3c(c(O)c1C2=O)C[C@@](O)(C(=O)CO)C[C@@H]3O[C@H]1C[C@H](N)[C@H](O)[C@H](C)O1 [doxorubicin]
maximum safe dosage ([1]; cumulative per 3 weeks): approximately 130 micromoles per meter squared per 3 weeks | minimum effective dosage ([1]; lowest dosage usually used): ~100 micromoles per meter squared per 3 weeks | minimum effective dosage ([1]; per 3 weeks): about 60 mg/m^2

CC[C@]1(O)C[C@H]2CN(CCc3c([nH]c4ccccc34)[C@@](C(=O)OC)(c3cc4c(cc3OC)N(C=O)[C@H]3[C@@](O)(C(=O)OC)[C@H](OC(C)=O)[C@]5(CC)C=CCN6CC[C@]43[C@@H]65)C2)C1 [vincristine]
maximum safe dosage ([1]; cumulative per 3 weeks): about 8 micromoles per meter squared per 3 weeks | minimum effective dosage ([1]; lowest dosage usually used): about 3.25 micromoles per meter squared per 3 weeks

IGF-1: human insulin-like growth factor-1, SEQ ID NO:1
stimulation of proliferation [2]: stimulated proliferation | stimulation of proliferation [3]: stimulated proliferation | stimulation of proliferation [4]: stimulated proliferation | stimulation of proliferation [5]: stimulated proliferation

IGF-MTX
binding to the IGF receptor compared with long-R3-IGF-1 [6]: bound more tightly to the IGF receptor than long-R3-IGF-1 at most concentrations | LNCaP tumor growth inhibition ([7]; 1.28 nmol/g (as MTX), single tail vein injection on day 5): did not inhibit tumor growth | LNCaP tumor size compared to mice treated with higher doses of free MTX (50, 20 or 8 nmol/g) ([7]; 3.2 nmol/g (as MTX), single tail vein injection on day 5): much smaller | LNCaP tumor size compared to mice treated with higher doses of free MTX (50, 20 or 8 nmol/g) ([7]; 8 nmol/g (as MTX), single tail vein injection on day 5): much smaller | fold lower dose at which more effective than free MTX (statistically significant) ([7]; 8 nmol/g IGF-MTX vs. 50 nmol/g MTX, day 98, listed as IGF-methotrexate conjugate): 6.5 fold | fold lower dose at which it is or appears more effective than free MTX ([7]; listed as IGF-MTX conjugate): more than 15 fold | fold lower dose at which it is or appears more effective than free MTX ([7]; listed as IGF-methotrexate conjugate): 15 fold | Cell number (relative units) ([8]; Minimal med. (0.1% FBS), MTX conc. 2 nM): .677 ± .057 relative units | Cell number (relative units) ([8]; Minimal med. (0.1% FBS), MTX conc. 8 nM): .794 ± .028 relative units | Cell number (relative units) ([8]; Minimal med. (0.1% FBS), MTX conc. 32 nM): .921 ± .014 relative units | Cell number (relative units) ([8]; Minimal med. (0.1% FBS), MTX conc. 125 nM): .921 ± .014 relative units | Cell number (relative units) ([8]; Minimal med. (0.1% FBS), MTX conc. 500 nM): .635 ± .038 relative units | Cell number (relative units) ([8]; Minimal med. (0.1% FBS), MTX conc. 2000 nM): .255 ± .014 relative units | Cell number (relative units) ([8]; Rich medium (10% FBS), MTX conc. 2 nM): 0.716 ± .021 relative units | Cell number (relative units) ([8]; Rich medium (10% FBS), MTX conc. 8 nM): 0.674 ± .036 relative units | Cell number (relative units) ([8]; Rich medium (10% FBS), MTX conc. 32 nM): 1.248 ± .018 relative units | Cell number (relative units) ([8]; Rich medium (10% FBS), MTX conc. 125 nM): 0.891 ± .017 relative units | Cell number (relative units) ([8]; Rich medium (10% FBS), MTX conc. 500 nM): 0.381 ± .008 relative units | Cell number (relative units) ([8]; Rich medium (10% FBS), MTX conc. 2000 nM): 0.234 ± .004 relative units | MCF7 tumor growth ([9]; 10 nmol of MTX/g intravenous, days 0, 4 and 8, 12 days of observation): showed no signs of tumor growth on average | fold lower molar dosage at which more effective than free MTX ([9]; MCF7 xenografts): 4 fold | difference in tumor volume on average between IGF-MTX conjugate-treated group and MTX-treated group ([9]; day 12, IGF-MTX 10 nmol of MTX/g vs free MTX 40 nmol/g): ~8 fold | MCF7-L tumor growth inhibition [10]: inhibited about equally | inhibition of proliferation compared to untreated control cells ([11]; LNCaP): inhibited proliferation of LNCaP cells | higher concentration than free MTX required to achieve the same inhibitory effect ([11]; LNCaP cells in vitro): about 2 times | IC50 ([11]; LNCaP, RPMI + 10% FCS, 48 hours with drug, IGF-MTX as concentration of MTX groups): ~1000 nM | Average weight of mice, Day 0 [12]: 17.8 g | Average weight of mice, Day 4 [12]: 18.6 g | Average weight of mice, Day 20 [12]: 20.1 g

insulin-methotrexate conjugate: approximately 3 MTX attached to each insulin by direct amide bonds to the two alpha amino groups and one lysine side chain
effect on LNCAP tumor growth ([13]; low dose 15 μmoles/kg methotrexate, days 0, 4, 8, 18, 22 and 26): appeared to slow tumor growth | lower concentration at which effective against LNCAP tumors relative to unconjugated methotrexate [13, 16]: at least 2.6 times | effect on FSAII tumor growth [14, 17]: appeared to very significantly slow tumor growth | toxicity (death of mice) [14, 17]: killed all five mice by one day following the third treatment | effect on FSAII tumor growth ([14]; low dose 15 μmoles/kg methotrexate, intraperitoneally, days 0, 2 and 5): significantly slowed tumor growth | activity against FSAII tumors in vivo relative to unconjugated methotrexate [14, 16]: at least 4 fold

insulin: insulin
stimulation of proliferation [2]: stimulated proliferation | stimulation of proliferation [3]: stimulated proliferation | stimulation of proliferation [4]: stimulated proliferation | stimulation of proliferation [5]: stimulated proliferation

long-R3-IGF-1: variant of IGF-1, SEQ ID NO:4, reduced binding affinity for soluble IGF binding proteins (GroPep)
binding affinity for the type 1 IGF receptor compared to wild-type IGF-1 [15]: equal binding affinity
